From US10870647B2, “Imidazopyridine derivative, method for preparing same, and pharmaceutical composition containing same as active ingredient for preventing or treating cancer” (DAEGU-GYEONGBUK MEDICAL INNOVATION FOUNDATION, priority 2016, dated 2020)

What was measured:
Assay in all cases: Kinase selectivity, scanMAX Kinase assay panel (DiscoverX), % control at 1 uM
Type in all cases: binding
[1] = target: T1, scanMAX Kinase assay panel (Homo sapiens, UniProt Q13523); settings: PRP4; 1 uM; read-out: Percent Control (%)
T1 construct: purchased DiscoverX
Method in brief: (§1)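 Each kinase was first exposed to the test compound at 1 uM in DMSO. Signal was then normalised to positive and negative controls to give % control. Finally, any enzyme showing <35% control was judged inhibited.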

[2] = target: T2, scanMAX Kinase assay panel (Homo sapiens, UniProt O43683); settings: BUB1; 1 uM; read-out: Percent Control (%)
T2 construct: purchased DiscoverX
Method in brief: as §1

[3] = target: T3, scanMAX Kinase assay panel (Homo sapiens, UniProt Q13233); settings: MAP3K1; 1 uM; read-out: Percent Control (%)
T3 construct: purchased DiscoverX
T3 sequence (Q13233 whole entry): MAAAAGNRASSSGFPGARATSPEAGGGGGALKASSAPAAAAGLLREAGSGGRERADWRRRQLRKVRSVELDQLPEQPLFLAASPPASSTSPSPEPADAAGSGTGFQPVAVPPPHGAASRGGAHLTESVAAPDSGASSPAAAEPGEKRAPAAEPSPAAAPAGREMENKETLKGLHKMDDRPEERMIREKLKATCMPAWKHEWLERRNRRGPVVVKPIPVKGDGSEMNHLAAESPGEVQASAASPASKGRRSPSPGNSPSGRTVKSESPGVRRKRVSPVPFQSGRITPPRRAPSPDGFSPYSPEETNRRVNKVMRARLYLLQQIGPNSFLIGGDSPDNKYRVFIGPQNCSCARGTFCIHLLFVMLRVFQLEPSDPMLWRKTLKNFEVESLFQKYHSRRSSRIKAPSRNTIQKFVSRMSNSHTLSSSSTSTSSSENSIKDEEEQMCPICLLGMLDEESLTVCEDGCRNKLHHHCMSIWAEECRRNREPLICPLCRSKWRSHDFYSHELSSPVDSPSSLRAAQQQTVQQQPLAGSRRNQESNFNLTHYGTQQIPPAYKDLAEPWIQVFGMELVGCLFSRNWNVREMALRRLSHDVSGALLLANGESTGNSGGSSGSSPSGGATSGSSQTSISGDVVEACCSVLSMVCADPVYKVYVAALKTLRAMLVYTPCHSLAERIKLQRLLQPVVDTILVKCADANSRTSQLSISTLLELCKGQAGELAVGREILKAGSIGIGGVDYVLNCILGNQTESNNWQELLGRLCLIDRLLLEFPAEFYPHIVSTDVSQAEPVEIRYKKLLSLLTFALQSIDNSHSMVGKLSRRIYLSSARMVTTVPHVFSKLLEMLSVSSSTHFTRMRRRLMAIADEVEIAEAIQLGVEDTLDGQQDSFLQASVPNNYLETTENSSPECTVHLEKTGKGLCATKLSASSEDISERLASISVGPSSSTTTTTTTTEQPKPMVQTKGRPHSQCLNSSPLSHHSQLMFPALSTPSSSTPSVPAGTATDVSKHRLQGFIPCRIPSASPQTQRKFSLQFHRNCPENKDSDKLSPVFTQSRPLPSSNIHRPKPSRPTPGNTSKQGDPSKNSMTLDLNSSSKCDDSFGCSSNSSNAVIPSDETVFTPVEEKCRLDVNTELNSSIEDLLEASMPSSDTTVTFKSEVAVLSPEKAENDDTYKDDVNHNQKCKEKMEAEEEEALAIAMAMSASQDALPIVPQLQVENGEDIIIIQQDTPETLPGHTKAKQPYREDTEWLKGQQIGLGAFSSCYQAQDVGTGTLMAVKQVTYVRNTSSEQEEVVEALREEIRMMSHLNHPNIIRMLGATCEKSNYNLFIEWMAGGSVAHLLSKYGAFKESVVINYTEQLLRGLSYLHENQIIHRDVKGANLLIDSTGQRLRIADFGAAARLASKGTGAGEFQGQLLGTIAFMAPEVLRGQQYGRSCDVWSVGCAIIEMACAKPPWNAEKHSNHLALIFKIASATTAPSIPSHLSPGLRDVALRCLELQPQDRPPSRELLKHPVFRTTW
Method in brief: as §1

[4] = target: T4, scanMAX Kinase assay panel (Homo sapiens, UniProt Q9Y2I7); settings: PIKFYVE; 1 uM; read-out: Percent Control (%)
T4 construct: purchased DiscoverX
T4 sequence (Q9Y2I7 whole entry): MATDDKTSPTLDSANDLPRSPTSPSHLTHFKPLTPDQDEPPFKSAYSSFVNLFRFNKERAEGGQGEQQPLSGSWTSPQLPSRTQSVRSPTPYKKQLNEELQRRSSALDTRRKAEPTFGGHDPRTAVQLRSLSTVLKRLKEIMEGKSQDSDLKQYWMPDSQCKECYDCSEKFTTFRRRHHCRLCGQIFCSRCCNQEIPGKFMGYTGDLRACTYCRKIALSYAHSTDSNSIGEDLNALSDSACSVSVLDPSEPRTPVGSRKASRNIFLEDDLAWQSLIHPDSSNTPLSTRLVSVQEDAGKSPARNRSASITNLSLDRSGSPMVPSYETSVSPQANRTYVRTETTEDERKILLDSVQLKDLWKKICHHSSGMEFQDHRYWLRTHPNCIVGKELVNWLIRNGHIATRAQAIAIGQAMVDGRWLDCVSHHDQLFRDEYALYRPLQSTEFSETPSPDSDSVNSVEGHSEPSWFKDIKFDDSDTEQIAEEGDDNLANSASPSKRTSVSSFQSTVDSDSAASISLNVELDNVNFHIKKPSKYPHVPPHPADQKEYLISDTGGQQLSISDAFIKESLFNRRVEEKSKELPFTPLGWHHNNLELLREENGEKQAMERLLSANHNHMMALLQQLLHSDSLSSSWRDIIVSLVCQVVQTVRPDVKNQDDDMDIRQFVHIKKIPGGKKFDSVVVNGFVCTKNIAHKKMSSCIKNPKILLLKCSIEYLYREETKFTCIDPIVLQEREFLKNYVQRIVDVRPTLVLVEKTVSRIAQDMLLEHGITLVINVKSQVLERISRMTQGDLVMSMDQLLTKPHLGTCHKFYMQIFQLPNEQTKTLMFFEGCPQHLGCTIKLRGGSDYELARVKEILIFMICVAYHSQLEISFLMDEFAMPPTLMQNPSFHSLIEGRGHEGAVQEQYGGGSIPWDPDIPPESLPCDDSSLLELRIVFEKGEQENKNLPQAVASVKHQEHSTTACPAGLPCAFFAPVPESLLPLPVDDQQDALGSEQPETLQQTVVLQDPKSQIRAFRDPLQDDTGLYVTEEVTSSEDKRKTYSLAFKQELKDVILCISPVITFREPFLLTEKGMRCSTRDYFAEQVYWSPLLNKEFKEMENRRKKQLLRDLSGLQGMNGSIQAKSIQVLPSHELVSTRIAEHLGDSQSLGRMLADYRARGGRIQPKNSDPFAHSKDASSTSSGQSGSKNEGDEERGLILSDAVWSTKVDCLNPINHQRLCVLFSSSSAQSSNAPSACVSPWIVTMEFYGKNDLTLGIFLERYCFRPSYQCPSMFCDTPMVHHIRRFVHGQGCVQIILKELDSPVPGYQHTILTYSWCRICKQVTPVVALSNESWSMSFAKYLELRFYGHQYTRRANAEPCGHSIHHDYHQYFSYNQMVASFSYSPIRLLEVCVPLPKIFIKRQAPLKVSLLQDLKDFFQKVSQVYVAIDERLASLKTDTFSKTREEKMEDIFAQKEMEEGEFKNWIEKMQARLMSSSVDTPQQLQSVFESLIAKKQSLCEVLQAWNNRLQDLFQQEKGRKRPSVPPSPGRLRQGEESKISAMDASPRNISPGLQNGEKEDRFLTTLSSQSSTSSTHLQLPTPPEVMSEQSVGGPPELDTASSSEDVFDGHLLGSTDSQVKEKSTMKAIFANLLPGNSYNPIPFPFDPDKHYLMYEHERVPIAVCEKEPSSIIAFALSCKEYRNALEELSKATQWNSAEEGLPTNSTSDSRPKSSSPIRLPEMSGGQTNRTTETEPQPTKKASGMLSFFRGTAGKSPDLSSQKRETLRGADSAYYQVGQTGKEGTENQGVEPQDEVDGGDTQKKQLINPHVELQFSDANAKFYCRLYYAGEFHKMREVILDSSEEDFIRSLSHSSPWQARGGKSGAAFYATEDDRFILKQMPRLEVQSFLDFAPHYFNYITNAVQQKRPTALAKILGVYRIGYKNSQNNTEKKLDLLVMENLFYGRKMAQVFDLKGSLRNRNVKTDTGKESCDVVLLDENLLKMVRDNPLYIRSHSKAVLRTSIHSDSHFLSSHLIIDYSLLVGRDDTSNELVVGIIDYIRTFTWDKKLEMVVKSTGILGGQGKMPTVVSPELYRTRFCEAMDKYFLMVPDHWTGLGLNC
Method in brief: as §1

[5] = target: T5, scanMAX Kinase assay panel (Homo sapiens, UniProt Q9UL54); settings: TAOK2; 1 uM; read-out: Percent Control (%)
T5 construct: purchased DiscoverX
T5 sequence (Q9UL54 1-1235): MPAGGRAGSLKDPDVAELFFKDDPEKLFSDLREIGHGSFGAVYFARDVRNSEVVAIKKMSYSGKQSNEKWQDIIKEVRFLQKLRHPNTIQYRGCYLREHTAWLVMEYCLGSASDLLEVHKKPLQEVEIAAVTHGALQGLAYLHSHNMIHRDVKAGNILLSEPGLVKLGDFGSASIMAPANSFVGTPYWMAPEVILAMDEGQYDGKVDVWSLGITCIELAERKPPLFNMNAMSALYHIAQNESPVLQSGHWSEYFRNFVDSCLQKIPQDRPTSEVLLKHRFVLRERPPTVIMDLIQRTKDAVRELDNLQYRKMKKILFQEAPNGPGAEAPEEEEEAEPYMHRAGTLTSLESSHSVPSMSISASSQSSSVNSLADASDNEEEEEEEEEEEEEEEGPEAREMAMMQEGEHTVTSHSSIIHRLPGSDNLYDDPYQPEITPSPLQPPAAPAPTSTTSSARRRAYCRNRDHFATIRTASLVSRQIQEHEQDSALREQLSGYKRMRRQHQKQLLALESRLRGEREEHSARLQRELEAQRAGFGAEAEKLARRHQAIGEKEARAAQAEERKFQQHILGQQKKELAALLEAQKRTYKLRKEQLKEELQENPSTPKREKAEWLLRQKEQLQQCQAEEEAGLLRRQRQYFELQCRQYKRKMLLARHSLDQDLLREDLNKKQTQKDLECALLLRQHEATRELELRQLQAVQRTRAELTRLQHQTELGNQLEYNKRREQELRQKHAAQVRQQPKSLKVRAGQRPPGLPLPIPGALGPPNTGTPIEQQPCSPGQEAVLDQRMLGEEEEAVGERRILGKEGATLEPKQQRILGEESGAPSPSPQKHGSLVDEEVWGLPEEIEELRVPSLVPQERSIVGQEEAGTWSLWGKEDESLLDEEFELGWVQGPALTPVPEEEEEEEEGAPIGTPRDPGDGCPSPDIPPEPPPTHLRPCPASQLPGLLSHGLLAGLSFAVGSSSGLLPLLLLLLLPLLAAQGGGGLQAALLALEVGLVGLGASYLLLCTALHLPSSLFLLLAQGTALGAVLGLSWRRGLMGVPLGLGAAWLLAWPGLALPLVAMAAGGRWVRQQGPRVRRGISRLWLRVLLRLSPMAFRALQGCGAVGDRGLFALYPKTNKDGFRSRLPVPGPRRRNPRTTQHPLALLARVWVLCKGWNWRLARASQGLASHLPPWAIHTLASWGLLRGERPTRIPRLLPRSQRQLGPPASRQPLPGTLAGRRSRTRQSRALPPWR
Method in brief: as §1

[6] = target: T6, scanMAX Kinase assay panel (Homo sapiens, UniProt P27361); settings: ERK1; 1 uM; read-out: Percent Control (%)
T6 construct: purchased DiscoverX
T6 sequence (P27361 whole entry): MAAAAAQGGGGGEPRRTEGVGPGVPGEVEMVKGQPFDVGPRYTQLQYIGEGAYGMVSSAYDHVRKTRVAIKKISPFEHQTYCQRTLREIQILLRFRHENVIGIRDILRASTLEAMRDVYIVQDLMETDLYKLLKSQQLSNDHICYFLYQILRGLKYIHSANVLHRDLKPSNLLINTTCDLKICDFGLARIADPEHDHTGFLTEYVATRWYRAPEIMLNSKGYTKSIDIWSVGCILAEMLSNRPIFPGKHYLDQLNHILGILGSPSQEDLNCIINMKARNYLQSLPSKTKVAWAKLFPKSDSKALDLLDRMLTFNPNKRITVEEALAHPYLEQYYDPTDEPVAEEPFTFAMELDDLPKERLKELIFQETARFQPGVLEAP
Method in brief: as §1

[7] = target: T7, scanMAX Kinase assay panel (Homo sapiens, UniProt Q9H4B4); settings: PLK3; 1 uM; read-out: Percent Control (%)
T7 construct: purchased DiscoverX
T7 sequence (Q9H4B4 whole entry): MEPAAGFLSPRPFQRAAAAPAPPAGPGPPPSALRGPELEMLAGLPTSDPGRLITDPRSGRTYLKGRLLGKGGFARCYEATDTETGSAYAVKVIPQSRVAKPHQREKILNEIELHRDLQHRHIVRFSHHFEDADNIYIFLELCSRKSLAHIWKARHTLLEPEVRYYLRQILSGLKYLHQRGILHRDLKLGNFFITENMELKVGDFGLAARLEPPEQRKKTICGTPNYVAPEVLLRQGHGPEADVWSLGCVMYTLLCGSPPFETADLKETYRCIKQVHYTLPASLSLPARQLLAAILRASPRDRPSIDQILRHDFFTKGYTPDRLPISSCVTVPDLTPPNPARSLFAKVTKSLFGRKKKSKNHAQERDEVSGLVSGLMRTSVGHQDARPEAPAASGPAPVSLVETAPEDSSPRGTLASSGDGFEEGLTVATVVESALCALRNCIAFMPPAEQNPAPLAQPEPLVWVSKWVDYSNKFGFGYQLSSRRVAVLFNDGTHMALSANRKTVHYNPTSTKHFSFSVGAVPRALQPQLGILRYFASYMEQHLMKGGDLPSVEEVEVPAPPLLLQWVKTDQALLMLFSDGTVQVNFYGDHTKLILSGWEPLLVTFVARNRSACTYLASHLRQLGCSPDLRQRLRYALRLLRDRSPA
Method in brief: as §1

[8] = target: T8, scanMAX Kinase assay panel (Homo sapiens, UniProt Q8WTQ7); settings: GRK7; 1 uM; read-out: Percent Control (%)
T8 construct: purchased DiscoverX
T8 sequence (Q8WTQ7 1-553): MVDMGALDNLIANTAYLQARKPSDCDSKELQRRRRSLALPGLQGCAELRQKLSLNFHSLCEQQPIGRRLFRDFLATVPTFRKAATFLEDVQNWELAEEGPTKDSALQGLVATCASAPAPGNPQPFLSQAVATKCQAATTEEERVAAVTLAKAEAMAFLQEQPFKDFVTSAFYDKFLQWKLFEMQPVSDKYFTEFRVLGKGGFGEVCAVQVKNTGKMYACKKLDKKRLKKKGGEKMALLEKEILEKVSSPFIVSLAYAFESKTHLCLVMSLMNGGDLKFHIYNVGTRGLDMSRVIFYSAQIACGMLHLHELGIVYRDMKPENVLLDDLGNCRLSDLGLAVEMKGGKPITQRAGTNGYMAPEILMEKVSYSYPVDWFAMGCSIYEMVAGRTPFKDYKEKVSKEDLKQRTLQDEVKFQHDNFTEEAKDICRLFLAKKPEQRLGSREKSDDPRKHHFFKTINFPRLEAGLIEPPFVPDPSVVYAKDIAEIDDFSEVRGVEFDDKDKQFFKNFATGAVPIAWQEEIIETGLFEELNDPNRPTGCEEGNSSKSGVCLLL
Method in brief: as §1

With `Cc1ccc(NC(=O)C2(C(=O)Nc3ccc(F)cc3)CC2)cc1C#Cc1cnc2c(Nc3cnn(C(C)C)c3)cccn12` [Example 78] the remaining binding at 1 µM [1] was 100%, the remaining binding at 1 µM [2] was 100% and the remaining binding at 1 µM [3] was 94%. The remaining binding at 1 µM [4] was 91%, the remaining binding at 1 µM [5] was 100% and the remaining binding at 1 µM [6] was 100%. For the same molecule, the remaining binding at 1 µM [7] was 92% and the remaining binding at 1 µM [8] was 92%.
`Cc1cn(-c2cc(NC(=O)c3ccc(C)c(C#Cc4cnc5c(Nc6cnn(C)c6)cccn45)c3)cc(C(F)(F)F)c2)cn1` [Example 12, 4-methyl-N-(3-(4-methyl-1H-imidazol-1-yl)-5-(trifluoromethyl)phenyl)-3-((8-((1-methyl-1H-pyrazol-4-yl)amino)imidazo[1,2-a]pyridin-3-yl)ethynyl)benzamide] was tested, and the remaining binding at 1 µM [1] was 95%, the remaining binding at 1 µM [2] was 100% and the remaining binding at 1 µM [3] was 67%. The remaining binding at 1 µM [4] was 65%, the remaining binding at 1 µM [5] was 25% and the remaining binding at 1 µM [6] was 100%. The remaining binding at 1 µM [7] was 100% and the remaining binding at 1 µM [8] was 100%.
For `Cc1ccc(C(=O)Nc2ccc(CN3CCN(C)CC3)c(C(F)(F)F)c2)cc1C#Cc1cnc2c(Nc3cnn(C)c3)cccn12` [Example 1, 4-methyl-3-((8-((1-methyl-1H-pyrazol-4-yl)amino)imidazo[1,2-a]pyridin-3-yl)ethynyl)-N-(4-((4-methylpiperazin-1-yl)methyl)-3-(trifluoromethyl)phenyl)benzamide], the remaining binding at 1 µM [1] was 89%, the remaining binding at 1 µM [2] was 84% and the remaining binding at 1 µM [3] was 44%. It also gave a remaining binding at 1 µM [4] of 84%, a remaining binding at 1 µM [5] of 14% and a remaining binding at 1 µM [6] of 87%. For the same molecule, the remaining binding at 1 µM [7] was 77% and the remaining binding at 1 µM [8] was 81%.
